Data taken from ChEMBL document CHEMBL4014287, “Jesridonin in combination with paclitaxel demonstrates synergistic anti-tumor activity in human esophageal carcinoma cells” (Bioorg Med Chem Lett, 2017).
The source made the active and inactive calls. The rule behind the calls is not given here.

Tests used:
Mus musculus [1] = experiment: Toxicity in nude mouse xenografted with human EC109 cells assessed as skin ulceration at 10 mg/kg measured after 21 days; assay type: organism-based; conditions: in vivo, 504 h
ECa-109 cell line [2] = experiment: Induction of apoptosis in human EC109 cells assessed as nuclear condensation at 15 uM in presence of 5 nM paclitaxel after 24 hrs by Hochest 33258 staining based fluorescent microscopic analysis; assay type: functional, cell-based
ECa-109 cell line [3] = experiment: Induction of apoptosis in human EC109 cells assessed as increase in Bax level at 15 uM in presence of 5 nM paclitaxel by Western blot method; assay type: functional, cell-based
ECa-109 cell line [4] = experiment: Cytotoxicity against human EC109 cells assessed as combination index at 10 uM in presence of 2.5 nM paclitaxel; assay type: functional
Mus musculus [5] = experiment: Toxicity in nude mouse xenografted with human EC109 cells assessed as body weight loss at 10 mg/kg in presence of paclitaxel measured after 21 days; assay type: organism-based; conditions: in vivo, 504 h
ECa-109 cell line [6] = experiment: Cytotoxicity against human EC109 cells assessed as reduction in cell viability after 24 hrs by MTT assay; assay type: functional, cell-based
ECa-109 cell line [7] = experiment: Induction of apoptosis in human EC109 cells assessed as early apoptotic cells at 15 uM after 24 hrs in presence of paclitaxel by Annexin V-FITC/propidium iodide staining based flow cytometry (reference value: 1.3%); assay type: functional
ECa-109 cell line [8] = experiment: Cytotoxicity against human EC109 cells assessed as combination index at 10 uM in presence of 5 nM paclitaxel; assay type: functional
Mus musculus [9] = experiment: Toxicity in nude mouse xenografted with human EC109 cells assessed as effect on spleen at 10 mg/kg in presence of paclitaxel measured after 21 days by histopathological analysis; assay type: organism-based; conditions: in vivo, 504 h
Mus musculus [10] = experiment: Hepatotoxicity in nude mouse xenografted with human EC109 cells assessed as change in serum total protein level at 10 mg/kg in presence of paclitaxel measured after 21 days; assay type: toxicity, organism-based; conditions: in vivo, 504 h
ECa-109 cell line [11] = experiment: Antitumor activity against human EC109 cells xenografted in nude mouse assessed as increase in apoptotic cells at 10 mg/kg in presence of paclitaxel measured after 21 days by TUNEL assay; assay type: functional, organism-based
ECa-109 cell line [12] = experiment: Antitumor activity against human EC109 cells xenografted in nude mouse assessed as tumor growth inhibition at 10 mg/kg in presence of 5 mg/kg paclitaxel measured after 21 days relative to control; assay type: functional
Mus musculus [13] = experiment: Toxicity in nude mouse xenografted with human EC109 cells assessed as pathological changes at 10 mg/kg in presence of paclitaxel measured after 21 days; assay type: organism-based; conditions: in vivo, 504 h
ECa-109 cell line [14] = experiment: Induction of apoptosis in human EC109 cells assessed as nuclear shrinkage at 15 uM after 24 hrs by Hochest 33258 staining based fluorescent microscopic analysis; assay type: functional, cell-based
ECa-109 cell line [15] = experiment: Antitumor activity against human EC109 cells xenografted in nude mouse assessed as reduction in tumor size at 10 mg/kg in presence of 5 mg/kg paclitaxel measured after 21 days; assay type: functional, organism-based
Mus musculus [16] = experiment: Hepatotoxicity in nude mouse xenografted with human EC109 cells assessed as change in serum GGT level at 10 mg/kg in presence of paclitaxel measured after 21 days; assay type: toxicity, organism-based; conditions: in vivo, 504 h
ECa-109 cell line [17] = experiment: Induction of apoptosis in human EC109 cells assessed as viable cells at 15 uM after 24 hrs in presence of paclitaxel by Annexin V-FITC/propidium iodide staining based flow cytometry (reference value: 96.1%); assay type: functional; conditions: ECa-109, 24 h, read-out: Activity
Mus musculus [18] = experiment: Toxicity in nude mouse xenografted with human EC109 cells assessed as pathological changes at 10 mg/kg measured after 21 days; assay type: organism-based; conditions: in vivo, 504 h
Mus musculus [19] = experiment: Toxicity in nude mouse xenografted with human EC109 cells assessed as skin ulceration at 10 mg/kg in presence of paclitaxel measured after 21 days; assay type: organism-based; conditions: in vivo, 504 h
Mus musculus [20] = experiment: Hepatotoxicity in nude mouse xenografted with human EC109 cells assessed as change in serum albumin level at 10 mg/kg in presence of paclitaxel measured after 21 days; assay type: toxicity, organism-based; conditions: in vivo, 504 h
ECa-109 cell line [21] = experiment: Induction of apoptosis in human EC109 cells assessed as late apoptotic cells at 15 uM after 24 hrs by Annexin V-FITC/propidium iodide staining based flow cytometry (reference value: 1%); assay type: functional
ECa-109 cell line [22] = experiment: Cytotoxicity against human EC109 cells assessed as combination index at 5 uM in presence of 5 nM paclitaxel; assay type: functional
Mus musculus [23] = experiment: Nephrotoxicity in nude mouse xenografted with human EC109 cells at 10 mg/kg in presence of paclitaxel measured after 21 days by histopathological analysis; assay type: toxicity, organism-based; conditions: in vivo, 504 h
ECa-109 cell line [24] = experiment: Cytotoxicity against human EC109 cells assessed as combination index at 10 uM in presence of 10 nM paclitaxel; assay type: functional
ECa-109 cell line [25] = experiment: Cytotoxicity against human EC109 cells assessed as combination index at 5 uM in presence of 10 nM paclitaxel; assay type: functional
ECa-109 cell line [26] = experiment: Induction of apoptosis in human EC109 cells assessed as nuclear condensation at 15 uM after 24 hrs by Hochest 33258 staining based fluorescent microscopic analysis; assay type: functional, cell-based
ECa-109 cell line [27] = experiment: Induction of apoptosis in human EC109 cells assessed as viable cells at 15 uM after 24 hrs by Annexin V-FITC/propidium iodide staining based flow cytometry (reference value: 96.1%); assay type: functional; conditions: ECa-109, 24 h, read-out: Activity
Mus musculus [28] = experiment: Hepatotoxicity in nude mouse xenografted with human EC109 cells assessed as change in serum ALT level at 10 mg/kg in presence of paclitaxel measured after 21 days; assay type: toxicity, organism-based; conditions: in vivo, 504 h
ECa-109 cell line [29] = experiment: Induction of apoptosis in human EC109 cells assessed as increase in PUMA level at 15 uM in presence of 5 nM paclitaxel by Western blot method; assay type: functional, cell-based

## C=C1C(=O)[C@@]23[C@@H]4OC(c5ccc(Cl)cc5)O[C@@]25OC[C@@]2([C@H]([C@@H]5O)C(C)(C)CC[C@@H]2O)[C@@H]3CC[C@@H]14 (some centres undefined)
Mus musculus [1]
  Activity: Non-Toxic
ECa-109 cell line [2]
  Activity: Active
ECa-109 cell line [3]
  Activity: Active
ECa-109 cell line [4]
  CI: 0.56
Mus musculus [5]
  Activity: Non-Toxic
ECa-109 cell line [6]
  Activity: Dose-dependent effect
ECa-109 cell line [7]
  Activity: 36.1%
ECa-109 cell line [8]
  CI: 0.43
Mus musculus [9]
  Activity: Non-Toxic
Mus musculus [10]
  Activity: Non-Toxic
ECa-109 cell line [11]
  Activity: Active
ECa-109 cell line [12]
  TGI: 77.21%
Mus musculus [13]
  Activity: Non-Toxic
ECa-109 cell line [14]
  Activity: Active
ECa-109 cell line [15]
  Activity: Active
Mus musculus [16]
  Activity: Non-Toxic
ECa-109 cell line [17]
  viability at 15 µM: 52.7%
Mus musculus [18]
  Activity: Non-Toxic
Mus musculus [19]
  Activity: Non-Toxic
Mus musculus [20]
  Activity: Non-Toxic
ECa-109 cell line [21]
  Activity: 5.3%
ECa-109 cell line [22]
  CI: 0.75
Mus musculus [23]
  Activity: Non-Toxic
ECa-109 cell line [24]
  CI: 0.43
ECa-109 cell line [25]
  CI: 0.48
ECa-109 cell line [26]
  Activity: Active
ECa-109 cell line [27]
  viability at 15 µM: 73.1%
Mus musculus [28]
  Activity: Non-Toxic
ECa-109 cell line [29]
  Activity: Active
